# Laboratory results published in patent US7655662B2, “(Indazol-5-yl)-pyrazines and (1,3-dihydro-indol-2-one)-pyrazines for treating glaucoma and controlling intraocular pressure” (Alcon Research, Ltd., priority 2005, dated 2010).
# Where a name gives a salt, the structure may show the parent alone.
# Biological target: T1, Human recombinant Rho kinase (ROKα/ROCK-II, (aa 11-552)) (Homo sapiens, UniProt O75116)
# T1 construct: Human recombinant Rho kinase (ROKα/ROCK-II, (aa 11-552), human active); purchased Upstate Biotechnology Co., Lake Placid, N.Y. 14-451
# T1 sequence (O75116 11-552): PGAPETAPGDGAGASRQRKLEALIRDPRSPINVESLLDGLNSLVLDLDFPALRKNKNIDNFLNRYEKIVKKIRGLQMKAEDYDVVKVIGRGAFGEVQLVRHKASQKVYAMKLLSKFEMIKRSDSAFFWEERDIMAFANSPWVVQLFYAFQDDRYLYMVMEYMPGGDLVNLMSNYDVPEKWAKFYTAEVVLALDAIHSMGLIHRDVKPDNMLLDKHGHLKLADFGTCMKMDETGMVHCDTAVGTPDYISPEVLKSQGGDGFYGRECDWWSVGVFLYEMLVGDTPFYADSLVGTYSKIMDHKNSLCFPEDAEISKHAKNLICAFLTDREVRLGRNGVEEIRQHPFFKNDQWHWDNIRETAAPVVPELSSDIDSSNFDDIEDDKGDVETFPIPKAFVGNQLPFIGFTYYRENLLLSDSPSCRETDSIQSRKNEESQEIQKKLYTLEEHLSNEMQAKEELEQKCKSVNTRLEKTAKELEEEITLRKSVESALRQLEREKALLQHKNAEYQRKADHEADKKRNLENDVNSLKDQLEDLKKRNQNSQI
# Test: Rho kinase II (ROCK II) IMAP fluorescence polarization inhibition assay
# Format: biochemical
# Conditions: IMAP ROCK II kit; substrate 200 nM, ATP 10 μM; 60 min at 23° C.; read-out: Rho kinase II Binding Data IC50
# Description: The ability of certain compounds of Formula (I) to inhibit rho kinase is evaluated by means of in vitro assays. Human recombinant Rho kinase (ROKα/ROCK-II, (aa 11-552), human active, catalog #14-451, Upstate Biotechnology Co., Lake Placid, N.Y.), MgCl2/ATP cocktail, and enzyme substrate (Upstate) is used.
# Fluorescence polarization assays are performed using a Biomek 2000 Robotic Workstation (Beckman Instruments, Palo Alto, Calif.) in a 96-well plate format. The assays are performed utilizing the IMAP ROCK II kit (Molecular Devices, Sunnyvale, Calif.) as follows. Substrate and ATP concentrations used are 200 nM and 10 μM, respectively, while the enzyme concentration is 3.96×10^−3 units per well. The substrate, enzyme, and ATP dilutions are made with the reaction buffer provided by the vendor. Test compounds are diluted in 10:10 DMSO-ethanol (vol/vol). For the actual assays, the various components are added into black, clear bottom, 96-well plates (Costar, Corning, N.Y.) in a final volume of 20 μl per well. After the enzyme reaction (60 min at 23° C.), 60 μl of the binding solution (IMAP kit, provided by vendor) is added per well and incubated for an additional 30 minutes in the dark at 23° C. Fluorescence polarization of the reaction mixtures is then measured on the Analyst™ HT instrument (Molecular Devices, Sunnyvale, Calif.).
# The data generated are then analyzed using a non-linear, iterative, sigmoidal-fit computer program purchased from IDBS (Emeryville, Calif.) and as previously described (Sharif et al., J Pharmacol. Exp. Ther. 286:1094-1102, 1998; Sharif et al., J Pharmacol. Expt. Ther. 293:321-328, 2000; Sharif et al., J Ocular Pharmacol. Ther. 18:141-162, 2002a; Sharif et al., J Pharmac. Pharmacol. 54:539-547, 2002b) to generate the inhibition constants for the test compounds.
row,Structure (SMILES),IC50 [nM]
1,"Cc1n[nH]c2ccc(-c3cncc(NC[C@@H](N)Cc4ccccc4)n3)cc12 (single isomer, unassigned) [Example 2]",57
2,"Cc1n[nH]c2ccc(-c3cncc(NC[C@@H](N)Cc4ccccc4)n3)cc12 [Example 1, (S)-N^1-[6-(3-Methyl-1H-indazole-5-yl)-pyrazin-2-yl]-3-phenyl-propane-1,2-diamine dihydrochloride]",190
3,Cc1n[nH]c2ccc(-c3cncc(NCC(N)Cc4cc5ccccc5[nH]4)n3)cc12 (stereo not drawn) [Example 3],590
